Source: patent publication US20150190534A1, “COMPOUNDS FOR USE AS POSITRON EMISSION IMAGING AGENTS” (UNIVERSITY OF BERN, priority 2014, published 2015)
Substitutions are numbered along the chain they refer to. Read-outs that look alike come from different tables or passages of the source.

What was measured:
[1] = target: T1, human WT-AR (Homo sapiens, UniProt P10275); assay: Whole cell competitive binding assay, WT-AR
T1 construct: pSG5-AR with full-length cDNA of human WT-AR; expressed in transfected cells; host or cells: COS-7
T1 sequence (P10275 1-920): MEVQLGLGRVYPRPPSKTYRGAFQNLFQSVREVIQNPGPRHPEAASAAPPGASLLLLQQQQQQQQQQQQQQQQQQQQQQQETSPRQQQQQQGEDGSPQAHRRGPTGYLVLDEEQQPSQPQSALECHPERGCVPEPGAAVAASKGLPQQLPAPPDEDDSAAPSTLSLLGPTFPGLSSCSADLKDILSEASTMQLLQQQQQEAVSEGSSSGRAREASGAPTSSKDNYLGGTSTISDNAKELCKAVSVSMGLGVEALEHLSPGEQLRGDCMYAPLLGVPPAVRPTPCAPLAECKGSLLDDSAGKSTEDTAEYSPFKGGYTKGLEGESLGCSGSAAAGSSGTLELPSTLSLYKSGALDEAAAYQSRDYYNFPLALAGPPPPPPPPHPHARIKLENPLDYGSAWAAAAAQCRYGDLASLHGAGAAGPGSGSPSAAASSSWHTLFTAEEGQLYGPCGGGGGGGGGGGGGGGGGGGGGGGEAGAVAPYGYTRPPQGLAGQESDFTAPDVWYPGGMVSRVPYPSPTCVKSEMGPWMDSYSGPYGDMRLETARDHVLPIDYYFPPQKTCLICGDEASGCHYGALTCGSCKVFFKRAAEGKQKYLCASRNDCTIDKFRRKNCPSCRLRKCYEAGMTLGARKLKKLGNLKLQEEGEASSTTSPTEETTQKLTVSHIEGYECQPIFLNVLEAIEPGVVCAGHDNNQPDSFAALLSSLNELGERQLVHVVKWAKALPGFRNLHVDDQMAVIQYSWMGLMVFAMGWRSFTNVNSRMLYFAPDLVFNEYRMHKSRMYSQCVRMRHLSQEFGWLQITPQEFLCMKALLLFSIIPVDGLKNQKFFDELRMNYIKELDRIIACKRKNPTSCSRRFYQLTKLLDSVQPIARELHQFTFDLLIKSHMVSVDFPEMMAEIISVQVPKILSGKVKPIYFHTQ
Procedure: (§1) Prostate. Jun. […] T877A-AR was generated by site-directed mutagenesis as described in Andrieu T, Bertolini R, Nichols S E, et al. A novel steroidal antiandrogen targeting wild type and mutant androgen receptors. Biochem Pharmacol. Dec. […] Cells seeded on 6-well plates (density: 5×10^5/well) were transfected 96 h later with 1 μg of empty (pcDNA3) or human AR encoding plasmids using 3 μl of FuGENE-HD transfection reagent (Roche, Rotkreuz, Switzerland). One day after transfection the medium was changed to 2% charcoal treated (CT) FBS containing medium.
(§2) In 24 wells 50′000 COS-7 cells were seeded and transfected with 500 ng of receptor encoding plasmids. One day later, cells were washed and cultured in 0.5 ml of phenol-red free DMEM with 2% CT-FBS for another 24 h. […] Supernatant and cells were mixed with scintillation liquid (Irgasafe, Perkin Elmer) and radioactivity counted (Tri-Carb 2000CA, Canberra Packard). The percentage of binding in presence and absence of derivative was calculated relatively to total dpm and results expressed as percentage of binding relative to the ^3H-tracer alone (100%).

[2] = target: T2, T877A-AR (Homo sapiens, UniProt P10275, T878A); assay: Whole cell competitive binding assay, T877A-AR
T2 construct: pSG5-AR with full-length cDNA of human WT-AR; expressed in transfected cells; host or cells: COS-7
T2 sequence (P10275 1-920 T878A): T1 sequence (P10275 1-920) with T878A
Procedure: as §1, §2

[3] = system: T877A-AR positive C4-2 tumors; assay: PET/CT imaging, C4-2 tumor bearing mice; format: in vivo, mouse
[4] = system: PC-3 AR-negative xenografts; assay: PET/CT imaging, PC-3 tumor bearing mice; format: in vivo, mouse; details: 3 h after injection
[5] = target: T3, mutant T877A-AR (pSG5AR-T877A) transfected COS-7 cells (Homo sapiens, UniProt P10275, T878A); format: cell-based
T3 construct: pSG5-AR with full-length cDNA of human WT-AR; expressed in transfected cells; host or cells: COS-7
T3 sequence (P10275 1-920 T878A): T1 sequence (P10275 1-920) with T878A
Description: Prostate. Jun. 1, 2011; 71(8):872-880.), progesterone receptor (pSG5-PR-alpha, pSG5-pPRbeta, PR), glucocorticoid (pCMV5-hGR-alpha, GR) and mineralocorticoid receptors (pRShMR, MR), estrogen receptors (pCMV5-ER-alpha, pCMV5-ER-beta, ER). T877A-AR was generated by site-directed mutagenesis as described in Andrieu T, Bertolini R, Nichols S E, et al. A novel steroidal antiandrogen targeting wild type and mutant androgen receptors. Biochem Pharmacol. Dec. 1, 2011; 82(11):1651-1662. Cells seeded on 6-well plates (density: 5×10^5/well) were transfected 96 h later with 1 μg of empty (pcDNA3) or human AR encoding plasmids using 3 μl of FuGENE-HD transfection reagent (Roche, Rotkreuz, Switzerland). One day after transfection the medium was changed to 2% charcoal treated (CT) FBS containing medium.
Then cells were washed with ice cold PBS. Collected medium and PBS were considered as the unbound fraction. Cells were incubated for 5 min in glycine buffer 50 mM (pH 2.8), washed with PBS (membrane fraction) and lysed with RIPA buffer (Sigma, R0278) (cellular fraction). The radioactivity was measured by gamma counting. Cellular uptake of radioactivity was corrected by the protein amount (BCA assay, Pierce).

[6] = Procedure: (§3) Male SCID-mice (Charles River, Sulzfeld, Germany) were subcutaneously injected with C4-2 and PC-3 cells into both shoulders as previously described (21).
(§4) Images were reconstructed at 0.6 mm thickness using a H31s medium smooth plus kernel. […] For biodistribution studies mice were sacrificed using CO2 after 1-3 h, designated organs and tissues harvested and weighed. Radioactivity was measured in a Gamma-counter (Wizard, Perkin Elmer) and the percentage of injected dose per gram of tissue (% ID/g) calculated.

[7] = system: T877A-AR positive C4-2 tumors; details: 1 h
Procedure: as §3, §4

[8] = system: receptor negative PC-3 tumors; details: 1 h
Procedure: as §3, §4

Question: For `C[C@]12CCC(=O)C[C@@H]1CC[C@@H]1[C@@H]2CC[C@]2(C)[C@@H](OC(=O)NCCCF)CC[C@@H]12` [RB390], which IC50 [1] is on record?
Answer: 357 nM

Question: And the IC50 [2]?
Answer: 32 nM

Question: What about the “PET signal in C4-2 tumors with unlabelled DHT” value ([3]; 3 h, excess of unlabelled DHT injected in parallel) of the same compound?
Answer: nearly full receptor blockade

Question: And the “PET signal in C4-2 tumors” value ([3]; 3 h after injection)?
Answer: bound specifically

Question: And the “PET signal in PC-3 tumors” value [4]?
Answer: remained at background levels

Question: For `C[C@]12CC[C@H](O)C[C@@H]1CC[C@@H]1[C@@H]2CC[C@]2(C)[C@@H](OC(=O)NCCCF)CC[C@@H]12` [RB448], which IC50 [1] is on record?
Answer: 2200 nM

Question: And the IC50 [2]?
Answer: 37.7 nM

Question: What about the “affinity/selectivity for T877A-AR versus WT-AR” value ([2]; comparison of IC50 values) of the same compound?
Answer: even more favorable selectivity

Question: For `C[N+](C)(CF)CCO` [^18F-FCH, ^18F-fluorocholine], which “preferential uptake by transfected cells” value ([5]; pcDNA3, WT-AR or T877A-AR transfected COS-7 cells) is on record?
Answer: did not reveal any preferential uptake

Question: What about the “radioactivity after washing procedures” value ([5]; transfected COS-7 cells, washing procedures) of the same compound?
Answer: eliminated

Question: And the Bone ([6]; 1 h)?
Answer: 27.99 ± 5.95 % ID/g

Question: What about the Brain ([6]; 1 h) of the same compound?
Answer: 9.61 ± 2.13 % ID/g

Question: What about the Heart ([6]; 1 h) of the same compound?
Answer: 76.93 ± 5.18 % ID/g

Question: And the Intestine ([6]; 1 h)?
Answer: 22.97 ± 4.67 % ID/g

Question: What about the Kidney ([6]; 1 h) of the same compound?
Answer: 164.72 ± 33.57 % ID/g

Question: And the Liver ([6]; 1 h)?
Answer: 48.82 ± 7.55 % ID/g

Question: What about the Lung ([6]; 1 h) of the same compound?
Answer: 97.42 ± 23.21 % ID/g

Question: And the Muscle ([6]; 1 h)?
Answer: 10.36 ± 2.58 % ID/g

Question: And the Prostate ([6]; 1 h)?
Answer: 48.26 ± 19.35 % ID/g

Question: What about the Spleen ([6]; 1 h) of the same compound?
Answer: 66.48 ± 19.45 % ID/g

Question: And the Testis ([6]; 1 h)?
Answer: 13.58 ± 2.64 % ID/g

Question: And the route of metabolism/excretion ([6]; tumor bearing SCID-mice)?
Answer: excreted predominantly by the kidney

Question: What about the “C4-2 Tumor” value [7] of the same compound?
Answer: 31.62 ± 3.88 % ID/g

Question: What about the “PC-3 Tumor” value [8] of the same compound?
Answer: 5.65 ± 1.37 % ID/g

Question: What does the source list for ^18F-fluorodeoxyglucose [^18F-FDG]?
Answer: preferential uptake by transfected cells [5]: did not reveal any preferential uptake; radioactivity after washing procedures [5]: eliminated
